Patent publication US8110399B2, “Stem cells of the islets of langerhans and their use in treating diabetes mellitus” (The General Hospital Corporation, priority 1999, dated 2012)

How the values were obtained:
[1] = tested on: partial pancreatectomy rat model of type 2 diabetes; details: daily administration for 10 days post pancreatectomy; cited from earlier work
[2] = tested on: NIP cultures; assay: Immunocytochemical detection of differentiation of NIPs; type: cell-based, human; details: for Idx-1 immunostaining / insulin immunostaining: NIP cultures expanded 7-10 days, then treated
Description: Nestin-positive pancreatic islet stem cells were analyzed for GLP-1R expression. Human islet tissue was obtained from the Juvenile Diabetes Research Center for Islet Transplantation, Harvard Medical School. NIPs were isolated as described previously (Zulewski, et al., 2001, Diabetes 50: 521). Briefly, islets were washed and cultured in RPMI 1640 medium containing serum, 11.1 mM glucose, antibiotics, sodium pyruvate, β-mercaptoethanol, and growth factors. Within several days, nestin-positive cells (identified immunocytochemically as described above) grew out from the islets. Later, these cells were cloned and expanded in medium containing 20 ng/ml of basic fibroblast growth factor and epidermal growth factor or 1000 units of recombinant human leukemia inhibitory factor. Incubation with GLP-1 was administered in the absence of serum and fresh peptide was added every 48 h without changing the medium.
Immunocytochemical detection of GLP-1R was performed using rabbit polyclonal antisera (Heller et al., supra) as follows. Cells cultured on Lab-Tek chamber slides (Nunc, Naperville, Ill.) or gridded coverslips (Bellco Glass, NJ) were fixed with 4% paraformaldehyde in PBS for 10 minutes at room temperature. After several rinses in PBS, cells were blocked with normal donkey serum for 30 minutes and incubated with primary antisera or pre-immune sera at 4° C. The following day, cells were rinsed with PBS and incubated with secondary antisera (donkey anti-rabbit and donkey anti-guinea pig) labeled with Cy-3 or Cy-2 for 1 hour at room temperature. After several washes, coverslips containing cells were mounted onto slides in mounting medium containing DAPI (Vector Laboratories, Burlingame, Calif.) which stains nuclei. Fluorescence images were obtained using a Zeiss epifluorescence microscope equipped with an Optronics TEC-470 CCD camera (Optronics Engineering, Goleta, Calif.) interfaced with a Powermac 7100. IP lab Spectrum software (Signal Analytics, Vienna, Va.) was used to acquire and analyze images.
NIPs were picked from islet cultures and expanded in growth medium containing bFGF plus EGF (passage 01) for 3-10 days (Zulewski et al., 2001 Diabetes 50: 521). In certain instances NIPOs that were expanded for 3-5 days were fixed and subjected to immunocytochemical detection of Nestin (Cy-3) and Insulin (Cy-2) as shown in FIG. 24A. […] Accordingly, treatment with Extendin-4 induced a 2- to 3-fold increase in insulin secretion (FIG. 25). However, in some culture wells, confluence alone was sufficient to initiate small amounts of insulin secretion.

[3] = tested on: nestin-positive NIPs; assay: Intracellular Ca2+ concentration in single isolated NIPs; type: cell-based, human
Description: The application of GLP-1 amide to single, isolated […] elevates levels of intracellular Ca^2+ concentration ([Ca^2+]i). Cells were plated onto gridded coverslips to permit subsequent immunohistochemical staining of the same cells to test for nestin expression.

[4] = tested on: diabetic mice; details: cited from earlier work
[5] = tested on: islet mass; assay: Islet mass after injection of GLP-1 into mice; type: in vivo; details: in 48 hours

exendin-4 [Extendin-4]
development of diabetes [1]: attenuated the development of diabetes
Idx-1 immunostaining [2]: Idx-1 positive
insulin immunostaining [2]: a subset of cells became insulin positive

glucagon-like peptide-1 (HDEFERHAEGTFTSDVSSYLEGQAAKEFIAWLVKGRG) [GLP-1, insulinotropic hormone glucagon-like peptide (GLP)-1 produced by the intestine]
[Ca2+]i levels ([3]; basal (5.6 mM) glucose): stimulates [Ca^2+]i levels
[Ca2+]i levels ([3]; high (20 mM) glucose): ineffective
blood sugar levels [4]: effectively lowers their blood sugar levels
insulin secretion [4]: stimulates insulin secretion
Idx-1 immunostaining [2]: Idx-1 positive
insulin immunostaining [2]: a subset of cells became insulin positive
nestin expression of the cultures ([2]; cultures treated with GLP-1): overall decrease in nestin expression
increase of islet mass [5]: 2 fold

[La+3] [La^3+]
[Ca2+]i increase mediated by GLP-1 ([3]; extracellular La3+ 5 μM): inhibited

CCCCNC(=O)NS(=O)(=O)c1ccc(C)cc1 [tolbutamide]
[Ca2+]i elevation ([3]; tolbutamide 100 μM): stimulates [Ca^2+]i elevation

Extendin (9-39): peptide, a specific antagonist of GLP-1 (GLP-1R antagonist)
increase in [Ca2+]i mediated by GLP-1 ([3]; pretreatment of single isolated NIPs with antagonist): prevents the increase
